We go through 64 compounds from PMC7539012, “Hyperphosphorylated tau aggregation and cytotoxicity modulators screen identified prescription drugs linked to Alzheimer's disease and cognitive functions” (Scientific Reports, 2020).

Counter-ions that a name gives are not always drawn.

One assay concerns T1, 1N4R p-tau.
T1 construct: made in house; host or cells: E. coli (PIMAX system)
The experiment in a line: p-tau aggregation modulator screen of 1280-compound library (ThS fluorescence net change over 16 h).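 For ThS net change: 30 µM compound with 6 µM p-tau over 16 h.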 Format: biochemical. Set-up: key to PTAI>2SD: *: PTAI>2SD.
Details: not given
`Brc1c(NC2=NCCN2)ccc2nccnc12.O=C(O)C(O)C(O)C(=O)O` [Brimondine L-Tartrate]: the ThS net change is on record as 418.

Turning to `CC(C)C[C@H]1C(=O)N2CCC[C@H]2[C@]2(O)O[C@](NC(=O)[C@@H]3C=C4c5cccc6[nH]c(Br)c(c56)C[C@H]4N(C)C3)(C(C)C)C(=O)N12.CS(=O)(=O)O` [Bromocryptine mesylate], the ThS net change stood at 296.

Take `Clc1ccc(CCC(Cn2ccnc2)Sc2c(Cl)cccc2Cl)cc1` (centres unmarked) [Butoconazole nitrate]: the ThS net change is 237.

Still in this assay, the particulars now being: 1280-compound library screen; ThS fluorescence net change over 16 h.
In turn, `CN(C)CCC(c1ccc(Br)cc1)c1ccccn1` (centres unmarked) [Brompheniramine maleate] registered a ThS net change of 379.

In turn, `CCCC1O[C@@H]2C[C@H]3[C@@H]4CCC5=CC(=O)C=C[C@]5(C)[C@H]4[C@@H](O)C[C@]3(C)[C@]2(C(=O)CO)O1` (some centres unmarked) [Budesonide] came in with a ThS net change of 389.

`CCCCNc1cc(C(=O)O)cc(S(N)(=O)=O)c1Oc1ccccc1` [Bumetanide] registered a ThS net change of 408.

Regarding `CCCCOC(=O)c1ccc(N)cc1` [Butamben], the ThS net change was found to be 387.

Turning to `CCCC[N+]1(C)[C@@H]2C[C@@H](OC(=O)[C@H](CO)c3ccccc3)C[C@H]1[C@@H]1O[C@@H]12.[Br-]` (some centres unmarked) [Butylscopolammonium (n-) bromide], the ThS net change is 388.

`C=C1/C(=C\C=C2/CCC[C@]3(C)[C@@H]([C@H](C)/C=C/[C@@H](O)C4CC4)CC[C@@H]23)C[C@@H](O)C[C@@H]1O` [Calcipotriene] had a ThS net change of 407.

In the case of `COC(=O)N/N=C/c1c[n+]([O-])c2ccccc2[n+]1[O-]` [Carbadox], the ThS net change is recorded as 380.

As to `CCN(CC)CCOCCOC(=O)C1(c2ccccc2)CCCC1` [Carbetapentane citrate], the ThS net change amounted to 402.

`C[C@@](Cc1ccc(O)c(O)c1)(NN)C(=O)O` [Carbidopa] came in with a ThS net change of 395.

Compound `CCOC(=O)n1ccn(C)c1=S` [Carbimazole] returned a ThS net change of 380.

For `COc1ccccc1OCCNCC(O)COc1cccc2[nH]c3ccccc3c12` (centres unmarked) [Carvedilol], the ThS net change was 394.

The compound `Cc1nnc(SCC2=C(C(=O)O)N3C(=O)[C@@H](NC(=O)Cn4cnnn4)[C@H]3SC2)s1` [Cefazolin sodium salt] displayed a ThS net change of 381.

Take `C=CC1=C(C(=O)O)N2C(=O)[C@@H](NC(=O)/C(=N\OCC(=O)O)c3csc(N)n3)[C@H]2SC1` [Cefixime]: the ThS net change is 408.

As to `CO/N=C(\C(=O)N[C@@H]1C(=O)N2C(C(=O)O)=C(COC(C)=O)CS[C@H]12)c1csc(N)n1` [Cefotaxime sodium salt], the ThS net change turned out to be 384.

With `CO[C@@]1(NC(=O)C2SC(=C(C(N)=O)C(=O)O)S2)C(=O)N2C(C(=O)O)=C(CSc3nnnn3C)CS[C@@H]21` (some centres unmarked) [Cefotetan], the ThS net change worked out at 392.

In the case of `Cc1cc(O)c(C(=O)N[C@@H](C(=O)N[C@@H]2C(=O)N3C(C(=O)O)=C(CSc4nnnn4C)CS[C@H]23)c2ccc(O)cc2)cn1` [Cefpiramide], the ThS net change worked out at 407.

In the case of `NC(=O)c1cc[n+](CC2=C(C(=O)O)N3C(=O)[C@@H](NC(=O)[C@@H](c4ccccc4)S(=O)(=O)[O-])[C@H]3SC2)cc1` [Cefsulodin sodium salt], the ThS net change is given as 388.

Staying with this assay, now noted: 1280-compound library screen; […].
`CCCCOC(=O)c1ccc(O)cc1` [Butylparaben]: the ThS net change is recorded as 396.

Compound `N[C@@H](C(=O)N[C@@H]1C(=O)N2C(C(=O)O)=C(Cl)CS[C@H]12)c1ccccc1.O` [Cefaclor hydrate] showed a ThS net change of 392.

Still in this assay, the particulars now being: flag: p-tau aggregation inhibitor, ThS net change more than 2 SD from mean.
`CCCCOc1ccc(CC(=O)NO)cc1` [Bufexamac]: the “PTAI>2SD” value is “*”.

Staying with this assay, now noted: library screen, ThS fluorescence net change over 16 h with p-tau.
In turn, `CCCCOc1ccc(CC(=O)NO)cc1` [Bufexamac] registered a ThS net change of 140.

With `CC(NC(C)(C)C)C(=O)c1cccc(Cl)c1` (centres unmarked) [Bupropion hydrochloride], the ThS net change stood at 278.

The compound `CS(=O)(=O)OCCCCOS(C)(=O)=O` [Busulfan] came in with a ThS net change of 324.

The same assay, now with this note: p-tau aggregation modulator screen of 1280-compound library; ThS fluorescence net change.
In turn, `CCN[C@H]1CN(CCCOC)S(=O)(=O)c2sc(S(N)(=O)=O)cc21` [Brinzolamide] came in with a ThS net change of 348.

Compound `CCN(CC)CCNC(=O)c1cc(Br)c(N)cc1OC` [Bromopride] yielded a ThS net change of 373.

In the case of `O=C(CCCN1CCC(O)(c2ccc(Br)cc2)CC1)c1ccc(F)cc1` [Bromperidol], the ThS net change is 337.

`COc1cc(OC)c(C(=O)CCCN2CCCC2)c(OC)c1.Cl` [Buflomedil hydrochloride] came in with a ThS net change of 363.

As to `CCCCN1CCCCC1C(=O)Nc1c(C)cccc1C` (centres unmarked) [Bupivacaine hydrochloride], the ThS net change is 364.

For the compound `CCCCN(CCCC)CCCOC(=O)c1ccc(N)cc1` [Butacaine], the ThS net change was 367.

Compound `CCN(CC)CCNC(C(=O)OCCC(C)C)c1ccccc1.Cl.Cl` (centres unmarked) [Camylofine chlorhydrate] displayed a ThS net change of 342.

`C[C@H](CS)C(=O)N1CCC[C@H]1C(=O)O` [Captopril] returned a ThS net change of 370.

`NC(=O)N1c2ccccc2C=Cc2ccccc21` [Carbamazepine]: the ThS net change came to 370.

The compound `CC(C)(C)NCC(O)COc1cccc2c1CCC(=O)N2` (centres unmarked) [Carteolol hydrochloride] returned a ThS net change of 377.

On to `CCN1CCN(C(=O)N[C@@H](C(=O)N[C@@H]2C(=O)N3C(C(=O)O)=C(CSc4nnnn4C)CS[C@H]23)c2ccc(O)cc2)C(=O)C1=O` [Cefoperazone dihydrate], for which the ThS net change turned out to be 363.

As for `NCc1ccccc1CC(=O)N[C@@H]1C(=O)N2C(C(=O)O)=C(CSc3nnnn3CC(=O)O)CS[C@H]12` [Ceforanide], the ThS net change is given as 351.

For the compound `CO[C@@]1(NC(=O)Cc2cccs2)C(=O)N2C(C(=O)O)=C(COC(N)=O)CS[C@@H]21` [Cefoxitin sodium salt], the ThS net change is on record as 354.

`CC(C)(O/N=C(\C(=O)N[C@@H]1C(=O)N2C(C(=O)[O-])=C(C[n+]3ccccc3)CS[C@H]12)c1csc(N)n1)C(=O)O` [Ceftazidime pentahydrate] had a ThS net change of 358.

Still in this assay, the particulars now being: p-tau aggregation modulator screen of 1280-compound library; […].
With `C=CCC1(CC(C)C)C(=O)NC(=O)NC1=O` [Butalbital], the ThS net change came out at 374.

With `CC[C@@]1(O)C(=O)OCc2c1cc1n(c2=O)Cc2cc3ccccc3nc2-1` [Camptothecine (S,+)], the ThS net change is listed as 350.

On to `C[C@]12CCC(=O)C=C1C=C[C@@H]1[C@@H]2CC[C@@]2(C)[C@H]1CC[C@@]2(O)CCC(=O)[O-].[K+]` [Canrenoic acid potassium salt], for which the ThS net change was 329.

As for `CCCC(C)(COC(N)=O)COC(=O)NC(C)C` (centres unmarked) [Carisoprodol], the ThS net change is reported as 370.

With `CCC1=C[C@@H]2C[N@]3CCc4c([nH]c5ccccc45)[C@@](C(=O)OC)(C2)[C@@H]13` [Catharanthine], the ThS net change was 374.

The same assay, now with this note: p-tau aggregation modulator screen of the compound library, ThS fluorescence net change.
`CC[N+](C)(C)Cc1ccccc1Br` [Bretylium tosylate]: the ThS net change was 431.

`CN(Cc1cc(Br)cc(Br)c1N)C1CCCCC1` [Bromhexine hydrochloride]: the ThS net change is recorded as 545.

In turn, `O=C1CC2(CCCC2)CC(=O)N1CCCCN1CCN(c2ncccn2)CC1` [Buspirone hydrochloride] registered a ThS net change of 445.

Regarding `CN(Cc1ccc(C(C)(C)C)cc1)Cc1cccc2ccccc12` [Butenafine Hydrochloride], the ThS net change is recorded as 436.

`Cn1c(=O)c2c(ncn2C)n(C)c1=O` [Caffeine] showed a ThS net change of 428.

In the case of `CCOc1nc2cccc(C(=O)O)c2n1Cc1ccc(-c2ccccc2-c2nnn[nH]2)cc1` [Candesartan], the ThS net change is on record as 415.

`C[C@]12CCC(=O)C=C1C=C[C@@H]1[C@@H]2CC[C@@]2(C)[C@H]1CC[C@@]21CCC(=O)O1` [Canrenone] returned a ThS net change of 462.

As for `C[N+](C)(C)CCOC(N)=O` [Carbachol], the ThS net change was determined as 440.

Turning to `CC1(C)[C@@H](OC(=O)CCC(=O)O)CC[C@]2(C)[C@H]3C(=O)C=C4[C@@H]5C[C@@](C)(C(=O)O)CC[C@]5(C)CC[C@@]4(C)[C@]3(C)CC[C@@H]12` [Carbenoxolone disodium salt], the ThS net change was found to be 460.

The compound `CN(C)CCOC(c1ccc(Cl)cc1)c1ccccn1.O=C(O)/C=C\C(=O)O` (centres unmarked) [Carbinoxamine maleate salt] showed a ThS net change of 427.

As to `CCCCCCNC(=O)n1cc(F)c(=O)[nH]c1=O` [Carmofur, 1-hexylcarbamoyl-5-fluorouracil], the ThS net change is 1524.

Compound `CC(C(=O)O)c1ccc2c(c1)[nH]c1ccc(Cl)cc12` (centres unmarked) [Carprofen] registered a ThS net change of 478.

Compound `CC1=C(C(=O)O)N2C(=O)[C@@H](NC(=O)[C@H](N)c3ccc(O)cc3)[C@H]2SC1` [Cefadroxil] displayed a ThS net change of 413.

For `C=CC1=C(C(=O)O)N2C(=O)[C@@H](NC(=O)/C(=N\O)c3csc(N)n3)[C@H]2SC1` [Cefdinir], the ThS net change stood at 454.

As for `CO/N=C(\C(=O)N[C@@H]1C(=O)N2C(C(=O)O)=C(C[N+]3(C)CCCC3)CS[C@H]12)c1csc(N)n1` [Cefepime hydrochloride], the ThS net change was determined as 418.

Turning to `CO[C@@]1(NC(=O)CSCC#N)C(=O)N2C(C(=O)O)=C(CSc3nnnn3C)CS[C@@H]21` [Cefmetazole sodium salt], the ThS net change amounted to 468.

`CN(C)CCn1nnnc1SCC1=C(C(=O)O)N2C(=O)[C@@H](NC(=O)Cc3csc(N)n3)[C@H]2SC1` [Cefotiam hydrochloride] gave a ThS net change of 423.

In the case of `COCC1=C(C(=O)OC(C)OC(=O)OC(C)C)N2C(=O)[C@@H](NC(=O)/C(=N\OC)c3csc(N)n3)[C@H]2SC1` (some centres unmarked) [Cefpodoxime proxetil], the ThS net change worked out at 454.

Compound `Nc1nc(/C(=C/CC(=O)O)C(=O)N[C@@H]2C(=O)N3C(C(=O)O)=CCS[C@H]23)cs1` [Ceftibuten] gave a ThS net change of 441.

Consider `CO/N=C(\C(=O)N[C@@H]1C(=O)N2C(C(=O)OC(C)OC(C)=O)=C(COC(N)=O)CS[C@H]12)c1ccco1` (some centres unmarked) [Cefuroxime axetil], for which the ThS net change was 445.
